Results on four compounds are retold here after EP0545991B1, “PEPTIDES THAT BLOCK HUMAN IMMUNODEFICIENCY VIRUS INFECTIONS AND METHODS OF USE THEREOF” (VAHLNE, Anders, priority 1990, dated 1992).

In data set [1] the test system is peripheral blood mononuclear cells. Description: Viability of mononuclear cells, flow cytometry after propidium iodide. Type of data set: cell-based, human. As to the method: The possibility that Gly-Pro-Gly may affect the viability and/or function of normal human circulating lymphomonocytic cells was examined by adding Gly-Pro-Gly to unfractionated and T cell enriched (CD2^+ = nominal T cells; CD4^+ = putative helper/inducer T cell subset; CD8+ = putative cytotoxic/suppressor T cell subset) peripheral blood mononuclear cell suspensions from healthy normal blood donors.
Thus, the viability of peripheral blood mononuclear cells exposed to Gly-Pro-Gly (2 mM, 4 days) was 99.67% and that of corresponding unexposed cells was 99.66% (mean of 4 experiments).

The nature of data set [2]: In vivo toxicity, growth of mice after intraperitoneal injections. Conditions: intraperitoneal injections starting at an age of 6 days; compared with controls. From the text:
In an in vivo test of the toxicity of Gly-Pro-Gly, groups of mice were given intraperitoneal injections of the substance starting at an age of 6 days. Figure 3 also graphically depicts the results. […] The peptides are thus non-toxic even when given in large doses.

In data set [3] the test system is HTLV IIIB/H9 Denmark. On the procedure: (§1) Table 1 lists the peptides and their amino acid sequences tested against the following virus/cell systems: • (1) HTLV-111B/H9 Denmark (obtained from Denmark, Bent Faber-Vestergard); • (2) HTLV-111B/H9 New York (obtained from Dr. William Hall, North Shore Hospital, Manhasset, N.Y.); and • (3) ELI-1/HUT (obtained from Dr. Levy, San Francisco, CA).
(§2) Virus at 100 50% tissue culture infectious doses (TCID50) and peptides at concentrations of 250 and 25 µg/ml were added to the cells simultaneously and incubated for 2 hours at 4°C with frequent stirring. Subsequently, the temperature was increased to 37°C and the mixtures were subjected to a second incubation for 2 hours. Following the second incubation, the cells were centrifuged at 325 x g and washed once in RPMI medium (Gibco Laboratories, NY). Cells, at a concentration of 5 x 10^5/ml, were then added to 24 multidish well plates at a final volume of 1.5 ml of growth medium (RPMI supplemented with 10% fetal calf serum (FCS), antibiotics and polybrene (2 µg/ml)), with the addition of peptides at dilutions of 250 or 25 µg/ml. […] As additional controls, two HIV infected cell cultures (designated pos. controls 1 and 2, Tables 3-5) and two uninfected cell cultures (designated neg. controls 1 and 2) were used.
(§3) Infected cells were continuously monitored for formation of syncytia and the growth medium supernatants were analyzed at days 9-12 p.i. for p24 antigen which is an indicator of HIV replication.
(§4) Briefly, the following protocol was used for detection of the p24 antigen. HIV p24 antigen was determined using a rabbit anti-p24 polyclonal antiserum as capture antibody and a biotinylated rabbit anti-p24 polyclonal antibody was used as detecting antibody in an avidin-horse radish peroxidase (HRP) ELISA. The sensitivity of the assay allowed detection of approximately 50 pg of p24 antigen per ml supernatant. […] Serial dilutions of the supernatants were made so as to detect p24 concentration in the most accurate range (< 2.0 absorbance units).
(§5) At the end of the experiment, the cells were collected and fixed on slides with acetone according to standard procedures as described in Jeansson et al., Exp. Cell Res., 161:181-188 (1985). The number of infected cells were then determined by indirect immunofluorescence using a human HIV positive serum diluted 1/100 and FITC conjugated antihuman IgG (Bio Merieux, France) diluted 1/200.
(§6) In tables 3-6, the p24 content of the supernatants of infected cells was determined by diluting the supernatants of infected cells in serial tenfold dilutions (1/10, 1/100, 1/1000 and 1/10,000) and analyzing in ELISA as described above. Results are indicated by the absorbance values (454nm) of respective dilutions.

Data set [4] concerns ELI1/HUT. On the procedure: as §1, §2, §3, §4, §5, §6
Data set [5] relates to HTLV-IIIB replication in H9 cells. In words: Dose response and combination experiments, p24 ELISA. It counts as cell-based, HIV. Conditions: Human immunodeficiency virus 1, IIIB, H9, read-out: approximate ID50 (p24 antigen reduced by 50%), supernatants diluted 1/5. On the procedure: The results in Tables 10 and 11 were obtained as described in Example 2. The supernatants were tested for p24 on day 8 p.i. Supernatants were serially diluted (1/5, 1/50 and 1/500) and analyzed by ELISA as described in Example 2.

Data set [6] concerns HTLV IIIB/H9 N.Y. As to the method:
as §1, §2, §3, §4, §5, §6
The peptides in their carboxy and amido forms were obtained from Bachem Feinchemikalien AG (Switzerland, GPG-NH2 Bachem, GPG-COOH, Bachem, PG-NH2 Bachem and PG-COOH Bachem) and Syntello (Sweden, GPG-NH2 Syntello). The effectiveness of the peptides was determined by both p24 production and syncytia formation as described in Example 2.
In tables 8 and 9, the p24 content of the supernatants of infected cells was determined by diluting the supernatants in serial tenfold dilutions (1/10, 1/100, 1/1,000) and analyzing by ELISA as described in Example 2. Results are indicated by the absorbance values (454 nm) of respective dilutions.

Data set [7] deals with ELI1/HUT. Description: Infectivity assay (p24 ELISA, indirect immunofluorescence), ELI-1/HUT. Type of data set: cell-based, HIV.
In data set [8] the test system is HIV. It counts as cell-based. As to the method: Virus at 100 50% tissue culture infectious doses (TCID50) and peptides at concentrations of 250 and 25 µg/ml were added to the cells simultaneously and incubated for 2 hours at 4°C with frequent stirring. Subsequently, the temperature was increased to 37°C and the mixtures were subjected to a second incubation for 2 hours. […] Cells, at a concentration of 5 x 10^5/ml, were then added to 24 multidish well plates at a final volume of 1.5 ml of growth medium (RPMI supplemented with 10% fetal calf serum (FCS), antibiotics and polybrene (2 µg/ml)), with the addition of peptides at dilutions of 250 or 25 µg/ml. […]
as §3
Briefly, the following protocol was used for detection of the p24 antigen. HIV p24 antigen was determined using a rabbit anti-p24 polyclonal antiserum as capture antibody and a biotinylated rabbit anti-p24 polyclonal antibody was used as detecting antibody in an avidin-horse radish peroxidase (HRP) ELISA. […] Serial dilutions of the supernatants were made so as to detect p24 concentration in the most accurate range (< 2.0 absorbance units). […]

Data set [9] has as its system HTLV IIIB/H9 N.Y. Description: Infectivity assay (p24 ELISA, syncytia formation, indirect immunofluorescence), HTLV-IIIB/H9 New York. It counts as cell-based, HIV.
The subject of data set [10] is herpes simplex virus type I (HSV-1) strain McIntyre. In words: Yield inhibition assay of HSV-1 in GMK cells. Type of data set: cell-based. As to the method:
To determine the specificity and toxicity of the peptides, Tyr-Arg-Gly-Pro-Gly, Gly-Pro-Gly and Arg-Gly-Pro-Gly were tested in (1) a plaque reduction assay and (2) a yield inhibition assay of herpes simplex virus type I (HSV-1) strain McIntyre.
The yield inhibition assay was performed as follows: HSV-1 was inoculated at a multiplicity of 0.5 pfu per GMK cell in the presence of the respective peptide at concentrations of 250 and 25 µg/ml. Virus adsorption was performed for 60 min. at room temperature. The cells were then rinsed five times with Hanks' Balanced Salt Solution (BSS) and incubated in a 5% CO2 atmosphere at 37°C with maintenance medium containing either peptides or acyclovir, according to the methods described in "Proceedings of a Symposium on Acyclovir", The American Journal of Medicine, July 20, (1982) which is incorporated herein by reference, or without any additives. Twenty-four hours p.i. the cells were freeze-thawed, scraped into the medium and tested for virus yield by the infectivity assay as outlined in Example 2. The results are shown in Table 7 where the plaque reduction values are the mean of two cultures and the yield of HSV-1 after 24 hours is the mean of two determinations and the values are presented in millions of pfu/ml.

Read-outs that look alike come from different tables or passages of the source. Where a SMILES comes first, the peptide text is derived from it.

In the case of `NCC(=O)N1CCC[C@H]1C(=O)NCC(N)=O` [GPG, Gly-Pro-Gly-NH2] (H-Gly-Pro-Gly-NH2), in data set [1] (2 mM, 4 days, mean of 4 experiments, unexposed cells 99.66%), the “viability of peripheral blood mononuclear cells” value is listed as 99.67%. Also, the “effect on viability of cultured monocytes and lymphocytes” value in data set [1] (doses as high as 2 mM, exposure as long as 4 days) was “did not appreciably affect the viability”. For the same compound, in data set [2], the “influence on the growth of mice” value is reported as “no significant influence”.

As for `Cc1cn([C@H]2C[C@H](N=[N+]=[N-])[C@@H](CO)O2)c(=O)[nH]c1=O` [AZT, azidothymidine], the “# OF SYNCYTIA/WELL Day 9” value is given as 16 in data set [3] (0.2 µM); 10 in data set [3] (2 µM); 0 in data set [3] (20 µM); 22 in data set [6] (0.2 µM); 11 in data set [6] (2 µM); 0 in [6] (20 µM). Moreover, the “% OF POS CELLS” value is listed as 5-10% in data set [3] (0.2 µM); 5-8% in data set [3] (2 µM); 0.1-1% in [3] (20 µM); 10% in [6] (0.2 µM); 10-15% in data set [6] (2 µM); 0-1% in [6] (20 µM). In addition, the “PERCENTAGE OF POS CELLS” value is given as 10 in [4] (0.2 µM), 10 in data set [4] (2 µM) and 10-15 in [4] (20 µM). The results for the IC50 in data set [5] (day 8 postinfection) and in data set [5] (twelve days after infection) were roughly 400 nM and roughly 3200 nM, respectively. Besides, the “# OF SYNCYTIA/WELL Day 14” value in data set [6] (0.2 µM) is given as greater than 100; in data set [6] (0.2 µM, Table 6), 29; in [6] (2 µM), greater than 100; in [6] (2 µM, Table 6), 4; in data set [6] (20 µM), 11; in data set [6] (20 µM, Table 6) it was 0. Moreover, the “PERCENTAGE OF AG POS CELLS” value in [6] (0.2 µM, Table 6) was 30; in [6] (2 µM, Table 6), 0.5-2.

With “Arg-Gly-Pro-Gly-Arg (RGPGR; printed: Arg-Gly-Pro-Gly-Arg)”, in [7] (25 µg/ml), the “PERCENTAGE OF POS CELLS” value is reported as 10-15, the “p24 1/10” value is 3 absorbance (454 nm), the “p24 1/100” value is given as 2.296 absorbance (454 nm) and the “p24 1/1,000” value is 0.745 absorbance (454 nm). Further, the “p24 1/10,000” value in data set [7] (25 µg/ml) was 0.263 absorbance (454 nm). For the same compound, in data set [7] (250 µg/ml), the “PERCENTAGE OF POS CELLS” value was 10-15, the “p24 1/10” value is listed as 3 absorbance (454 nm), the “p24 1/100” value is 1.999 absorbance (454 nm) and the “p24 1/1,000” value was 0.788 absorbance (454 nm). Besides, the “p24 1/10,000” value in [7] (250 µg/ml) is recorded as 0.339 absorbance (454 nm). Further, the “infection of treated cells by p24 synthesis and syncytia formation” value in [8] (Tables 3-5) was “became infected”. In addition, the “prevention of HIV infection by p24 levels and syncytia formation” value in data set [8] (Tables 3 to 6) is “did not prevent HIV infection”. In [9] (25 µg/ml), the “# OF SYNCYTIA/WELL Day 9” value was 14, the “# OF SYNCYTIA/WELL Day 14” value was greater than 100, the “% OF POS CELLS” value is on record as 5-10% and the “p24 1/10” value is 2.16 absorbance (454 nm). In data set [9] (25 µg/ml), the “p24 1/100” value is 0.853 absorbance (454 nm), the “p24 1/1,000” value was 0.268 absorbance (454 nm) and the “p24 1/10,000” value was 0.145 absorbance (454 nm). Besides, in data set [9] (250 µg/ml), the “# OF SYNCYTIA/WELL Day 9” value is recorded as 14, the “# OF SYNCYTIA/WELL Day 14” value was greater than 100, the “% OF POS CELLS” value was 10% and the “p24 1/10” value is on record as 2.116 absorbance (454 nm). Also, in [9] (250 µg/ml), the “p24 1/100” value is reported as 0.974 absorbance (454 nm), the “p24 1/1,000” value is 0.334 absorbance (454 nm) and the “p24 1/10,000” value is on record as 0.15 absorbance (454 nm).

For the compound `Nc1nc2c(ncn2COCCO)c(=O)[nH]1` [Acyclovir, acyclovir], the “yields of HSV-1” value in [10] (2 µM) is recorded as “significantly reduced”. For the same compound, in data set [10] (2 µM, mean of two determinations), the “YIELD OF HSV AFTER 24 HOURS” value was 0.9 millions of pfu/ml. Moreover, the activity at 2 µM in data set [10] (Human alphaherpesvirus 1, GMK, 24 h, read-out: YIELD OF HSV AFTER 24 HOURS PERCENT OF CONTROL) came out at 3%.
